Measurements as given in US6709830B2, “Methods for modulating the activation of a lymphocyte expressed G protein coupled receptor involved in cell proliferation, autoimmunity and inflammation” (The Regents of the University of California, priority 1997, dated 2004).
“Also recorded” adds a separate entry of the source. Blank lines part the entries; values can stand above or below the compound they belong to.

Experiments:
G2A [1] = molecular target: T1, G2A (Mus musculus, UniProt Q9Z282); experiment: Calcium assay ([Ca2+]i, Fura-2) in G2A.GFP transfected MCF 10A cells; type: cell-based; details: for transient increase in [Ca2+]i: LPC 0.1 μM, SPC 0.1 μM, LPA 1 μM, PAF 0.1 μM, ATP 20 μM; for desensitisation to subsequent stimulation with LPC or SPC (1 μM): pretreatment 5 minutes with LPC 1 μM or SPC 10 μM (b23 prints SPC 1.0 μM)
T1 construct: expressed in transfected cells; host or cells: MCF 10A (human breast epithelial cells, no endogenous G2A), plasmid pEXV3 G2A.GFP
T1 sequence (Q9Z282 1-382): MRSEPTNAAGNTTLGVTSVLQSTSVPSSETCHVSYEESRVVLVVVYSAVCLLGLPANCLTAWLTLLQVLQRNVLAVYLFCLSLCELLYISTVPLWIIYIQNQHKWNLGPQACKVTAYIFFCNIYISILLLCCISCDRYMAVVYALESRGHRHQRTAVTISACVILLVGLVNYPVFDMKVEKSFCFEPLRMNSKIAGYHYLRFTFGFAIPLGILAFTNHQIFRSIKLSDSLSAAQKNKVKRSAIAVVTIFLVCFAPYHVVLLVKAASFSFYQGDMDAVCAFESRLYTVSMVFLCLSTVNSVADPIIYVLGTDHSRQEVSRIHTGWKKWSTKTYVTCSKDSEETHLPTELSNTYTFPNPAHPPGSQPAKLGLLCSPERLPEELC
Protocol: (§1) MCF 10A cells were cultured in specialised glass-bottom dishes (Bioptech, Inc., Butler, Pa.) and loaded with Fura-2/AM ([…]; Molecular Probes) at 37° C. for 30 minutes in HEPES buffered saline (pH 7.4) containing 125 mM NaCl, 5 mM KCl, 1.2 mM MgSO4, 11 mM glucose, 1.8 mM CaCl2, 25 mM HEPES, 0.2% BSA. Loaded cells were washed, placed in HEPES buffeted saline without BSA, and incubated for 30 minutes at ambient temperature ensure dye hydrolysis by cytosolic esterases. Using a dual-wavelength spectrofluorometer (RFK-6002, Photon Technology Int'l, So. Brunswick, N.J.) coupled to an inverted fluorescence microscope (Olympus, IX-70, Lake Success, N.Y.), GFP-positive cells were identified using an excitation wavelength of 488 nm, a dichroic 505 nm long-pass and an emitter bandpass of 535 nm (Chroma Technology, Brattleboro, Vt.). [Ca^2+], measurements were performed on individual GFP-positive cells at excitation wavelengths of 340 nm and 380 nm, and an emission wavelength of 510 nm. Prior to data acquisition, background fluorescence (areas without cells) was measured and automatically subtracted from subsequent measurements. Agonists were diluted in HEPES buffered saline and solution changes accomplished by rapidly aspirating the buffer and replacing it with HEPES buffered saline containing the specific agonist. Fura-2 fluorescence signals (340 nm, 380 nm and the 340/380 ratio) originating from individual GFP-positive cells were continuously monitored at a sampling frequency of 25 Hz and collected using a software package from Photon Technology International (Felix™). Conversion of the 340 nm/380 nm ratio value into [Ca^2+]i was estimated by comparing the cellular fluorescence ratio with ratios acquired using Fura-2 (free acid) in buffers containing known Ca^2+ concentrations. [Ca^2+]i was then calculated as described by Grynkiewicz, et al (Grynkiewicz, G, et al, J Biol Chem, 260: pp3440-3450, 1985). All assays were performed in assay buffers containing 1 mM EGTA to exclude measurement of calcium influx.
(§2) To address whether G2A is a lysophospholipid receptor, we examined signalling events in cells ectopically expressing G2A as functional correlates of receptor activation. […] [Ca^2+]i measurements were performed in MCF 10A cells transfected with plasmids encoding green fluorescent protein (GFP) tagged G2A (pEXV3 G2A.GFP) (Kabarowski, J H S, et al, PNAS, 97: pp12109-12114, 2000) or GFP as described (Yan Xu and Derek S. Damron, Methods in Molecular Medicine, 39: Ovarian Cancer: Methods and Protocols, pp611-619, 2000). […] Similarly, dose-dependent responses of G2A.GFP transfected cells to SPC were observed, with an EC50 of approximately 0.4 μM (FIG. 4B). […] Responses to these agonists were not affected by G2A.GFP expression (FIG. 4A, middle and lower panels).

G2A [2] = molecular target: T1, G2A; experiment: Radioligand binding assay with cell homogenates of HEK 293 G2A.GFP cells; details: for competition for binding of [3H] 16:0 LPC / [3H] SPC to G2A: radioligand 1 nM, unlabelled lipids 100 nM, HEK 293 G2A.GFP
Protocol: To characterise the binding of LPC and SPC to G2A, we performed radioligand binding assays as described previously (Xu, Y, e al, Nature Cell Biology, 2: pp261-267, 2000). [^3H] 16:0 LPC and [^3H] SPC bound to cell homogenates from G2A expressing HEK 293 cells in a time-dependent manner and reached equilibrium after 60 minutes incubation at 4° C. (FIGS. 5A and B). […] LPC and [^3H] SPC. Binding of [^3H] LPC and [^3H] […] The maximum binding capacities for LPC and SPC were approximately 1,503 fmole/10^5 cells and 1,840 fmole/10^5 cells respectively.
Binding assay HEK 293 GFP or HEK 293 G2A.GFP cells were serum starved for 20 hours and subsequently collected in PBS/EDTA. Pelleted cells were stored at −80° C. until use. Frozen cells (10^6 cells/ml) were homogenized in “binding buffer” containing 20 mM Tris-HCl pH 7.5, 100 mM NaCl, 15 mM NaF, 0.2 mM PMSF, 1 mM MgCl2 and 4 mg/ml fatty acid-free BSA in a tight-fit glass Dounce homogeniser. Assays were performed in 96-well plates in triplicate with 100 μl cell homogenate (equivalent to 10^5 cells/well). Varying amounts of [^3H] 16:0 LPC or [^3H] SPC were added to cell homogenates in 50 μl of binding buffer in the presence or absence of cold 16:0 LPC or SPC, or other competitors. Plates were incubated at 4° C. for 2 hours, or for the indicated times. Cell-bound [^3H] LPC or [^3H] SPC was collected onto a filter (Printed Filtermat A, Wallac, Gaithersburg, Md.) using an automated cell harvester (HARVESTER 96, Tomtec, Orange, Conn.). A pause wash programme (five cycle washes) was used. Filters were presoaked in 1% polyethyleneimine (Sigma) to prevent nonspecific binding, dried, sealed in bags (Sample Bag, Wallac) with 4.5 ml Betaplate “Scint” scintillation cocktail (Wallac), and counted in a 1450 Microbeta Trilux Liquid Scintillation and Luminescence Counter (Wallac). Specific binding was calculated by subtraction of nonspecific binding (binding detected in the presence of 100-fold excess unlabelled lipid) from total binding.

MCF 10A cells = experiment: Calcium assay ([Ca2+]i, Fura-2) in parental or pEXV3 GFP transfected MCF 10A cells (control); type: cell-based, human; details: SPC or LPC up to 10 μM, LPA 1 μM, PAF 0.1 μM, ATP 20 μM
Protocol: as §1, §2

G2A.GFP fusion receptor = molecular target: T2, G2A.GFP fusion receptor (Mus musculus, UniProt Q9Z282); experiment: Internalisation of G2A.GFP in HEK 293 G2A.GFP cells (confocal microscopy); type: cell-based; details: lipid 0.1 μM, 2 hours, serum starved HEK 293 G2A.GFP cells
T2 construct: expressed in transfected cells; host or cells: HEK 293 cells infected with amphotropic MSCV G2A.GFP retrovirus
T2 sequence (Q9Z282 1-382): T1 sequence (Q9Z282 1-382)
Protocol: Agonist dependent receptor internalisation is a feature of GPCRs. G2A.GFP expressing HEK 293 cells (HEK 293 G2A.GFP) were generated by infection with amphotropic MSCV G2A.GFP retroviruses. In serum starved HEK 293 G2A.GFP cells, G2A.GFP is expressed predominantly on the plasma membrane. LPC (0.1 μM), as well as SPC (1 μM), induced internalisation of G2A.GFP in over 90% of cells (FIG. 6). Neither LPA, S-1-P or PAF induced G2A internalisation, which is consistent with LPC acting as a specific ligand for G2A. Treatment of HEK 293 G2A.GFP cells with SPC at low concentrations (0.1 μM) induced receptor internalisation in fewer cells (<50%).
HEK 293 G2A.GFP cells were seeded onto glass coverslips and subsequently serum starved for 16-24 hours prior to treatment with lipids. Two hours following lipid treatment, coverslips were washed with cold PBS and fixed with PBS/4% paraformaldehyde. Subcellular localisation of G2A.GFP was visualised under a confocal fluorescence microscope with a 60× oil immersion lens.

[3] = G2A.GFP transfected MCF 10A cells
[4] = G2A.GFP-transfected MCF 10A cells
[5] = BN 52021 200 μM pretreatment, G2A.GFP-transfected MCF 10A cells
[6] = PTX 100 ng/ml, 16 hours, G2A.GFP-transfected MCF 10A cells

Compound: CCCCCCCCCCCCCC(=O)O[C@@H]1[C@@H](C)[C@@]2(O)[C@@H](C=C(CO)C[C@]3(O)C(=O)C(C)=C[C@@H]23)[C@@H]2C(C)(C)[C@]12OC(C)=O [PMA, Phorbol 12-myristate 13-acetate]
effect of pretreatment on [Ca2+]i increases induced by LPA, LPC and SPC (up to 10 μM) (G2A [1]; PMA 100 nM (b23 prints 0.1 mM), 5 minutes, G2A.GFP-transfected MCF 10A cells): abolished; also recorded: inhibits
effect of pretreatment on [Ca2+]i increases induced by PAF (0.1 μM) and ATP (20 μM) (G2A [1]; PMA 100 nM, 5 minutes, G2A.GFP-transfected MCF 10A cells): did not affect

Compound: CCCCCCCCCCCCC/C=C/[C@@H](O)[C@@H](N)COP(=O)([O-])OCC[N+](C)(C)C [SPC, sphingosylphosphorylcholine]
Kd (G2A [2]; Scatchard analysis, saturation binding of [3H] 16:0 LPC or [3H] SPC, HEK 293 G2A.GFP cell homogenate, 4° C., read-out: dissociation constant (Kd)): 229 nM
competition for binding of [3H] 16:0 LPC / [3H] SPC to G2A (G2A [2]): competed for binding
maximum binding capacity (G2A [2]; saturation binding, HEK 293 G2A.GFP cell homogenate): ~1,840 fmole/10^5 cells
[Ca2+]i response in control cells (MCF 10A cells): Neither parental or pEXV3 GFP transfected cells responded
cells with internalisation of G2A.GFP (G2A.GFP fusion receptor): < 50%
EC50 (G2A [1]; G2A.GFP transfected MCF 10A cells, 1 mM EGTA in buffer, read-out: EC50 of dose-dependent increase in [Ca2+]i): ~400 nM
transient increase in [Ca2+]i (G2A [1]; [3]): induced a transient increase in [Ca^2+], albeit to a lesser extent; also recorded: induce transient [Ca^2+], increases
desensitisation to subsequent stimulation with LPC or SPC (1 μM) (G2A [1]; [4]): induced homologous and heterologous desensitisation; also recorded: induces desensitisation

competition for binding of [3H] 16:0 LPC / [3H] SPC to G2A (G2A [2]): potent competitors
Compound: CCCCCCCCCCCCCCCC(=O)OC[C@@H](O)COP(=O)([O-])OCC[N+](C)(C)C [16:0 LPC]
desensitisation to subsequent stimulation with LPC or SPC (1 μM) (G2A [1]; [4]): induces desensitisation

competition for binding of [3H] 16:0 LPC / [3H] SPC to G2A (G2A [2]): not
Compound: lysophosphatidylinositol [LPI]

Compound: CCCCCCCCCCCCCCCCOC[C@H](COP(=O)([O-])OCC[N+](C)(C)C)OC(C)=O [PAF]
competition for binding of [3H] 16:0 LPC / [3H] SPC to G2A (G2A [2]): not
[Ca2+]i response in control cells (MCF 10A cells): transient elevations
transient increase in [Ca2+]i (G2A [1]; [3]): transient elevations

competition for binding of [3H] 16:0 LPC / [3H] SPC to G2A (G2A [2]): not
Compound: sphingomyelin [SM]

competition for binding of [3H] 16:0 LPC / [3H] SPC to G2A (G2A [2]): not
Compound: CCCCCCCCCCCCC/C=C/[C@@H](O)[C@@H](N)COP(=O)(O)O [S-1-P]

Compound: Nc1ncnc2c1ncn2[C@@H]1O[C@H](COP(=O)(O)OP(=O)(O)OP(=O)(O)O)[C@@H](O)[C@H]1O [ATP]
[Ca2+]i response in control cells (MCF 10A cells): transient elevations
transient increase in [Ca2+]i (G2A [1]; [3]): transient elevations

Compound: CCCCCCCCCCCCCCCCCC(=O)OC[C@@H](O)COP(=O)([O-])OCC[N+](C)(C)C [18:0 LPC]
competition for binding of [3H] 16:0 LPC / [3H] SPC to G2A (G2A [2]): potent competitors

effect of pretreatment on [Ca2+]i increase induced by LPC (1 μM), SPC (1 μM), LPA (1 μM) or ATP (20 μM) (G2A [1]; [5]): not
effect of pretreatment on [Ca2+]i increase induced by PAF (G2A [1]; [5]): completely blocked
Compound: CC1C(=O)OC2C(O)C34C5CC(C(C)(C)C)C36C(OC(=O)C6O)OC4(C(=O)O5)C12O (stereo not drawn) [BN 52021]

competition for binding of [3H] 16:0 LPC / [3H] SPC to G2A (G2A [2]): not
transient increase in [Ca2+]i (G2A [1]; [3]): transient elevations
Compound: lysophosphatidyc acid [LPA]
[Ca2+]i response in control cells (MCF 10A cells): transient elevations

Compound: CCCCCCCCCCCCCCCCOC[C@@H](O)COP(=O)([O-])OCC[N+](C)(C)C [lyso-PAF]
competition for binding of [3H] 16:0 LPC / [3H] SPC to G2A (G2A [2]): not

Compound: CCCCCCCCCCCCCC(=O)OC[C@@H](O)COP(=O)([O-])OCC[N+](C)(C)C [14:0 LPC]
competition for binding of [3H] 16:0 LPC / [3H] SPC to G2A (G2A [2]): not and not able to compete

Compound: Pertussis Toxin [PTX]
effect of pretreatment on [Ca2+]i increases induced by LPA (1 μM), LPC (0.1 μM-5 μM) and SPC (1 μM-5 μM) (G2A [1]; [6]): inhibits
effect of pretreatment on [Ca2+]i increases induced by PAF (0.1 μM) or ATP (20 μM) (G2A [1]; [6]): not
